In US4704384A, “Aziridinyl quinone antitumor agents” (priority 1981, dated 1987):
Where “and” joins values, the source holds several entries; their conditions need not be identical. Equal entries are not always repeated. Entries after “also recorded” stand apart in the source; their conditions may differ. Where two headings read alike, the source gives them in different places.

How the values were obtained:
B16 melanocarcinoma = assay type: in vivo, murine
Lewis lung carcinoma = Lewis lung carcinoma test (subcutaneous implant, IP drug); assay type: in vivo, murine
Source text: ^c Subcutaneous tumor implantation, ip QD515 treatment schedule.

lymphoid leukemia L1210 [1] = assay type: in vivo, murine
Source text: (§1) A third IC tumor model, the ependymoblastoma system, was also studied. This system requires intracerebral implantation of a solid tumor fragment while the IC L1210 and IC P388 systems utilize IC inoculated ascites tumor fluid. All three use IP drug treatment however. […] Cures (survivors from the group of six mice on the last day of the experiment) are indicated.

[2] = test system: lymphocytic leukemia P388; assay: Intracerebral (IC) P388 antitumor test; assay type: in vivo, murine; settings: for ILS: IP
Source text: as §1

[3] = Approximation of human dose from mouse optimum dose; settings: approximated from optimum dose of 2 mg/kg in the mouse
Method: Using the assumptions and constants of Freireich et al., Cancer Chemother. Rep., 50, 219 (1966), and an optimum dose of 2 mg/kg in the mouse, an average human maximum tolerated dose of 10 mg per dose can be approximated. An active dose range of 2.5-10 mg per dose can be estimated.

[4] = test system: lymphocytic leukemia P388; assay type: in vivo, murine; settings: for survivors, P388: Table XI, parentheses, per 6
ependymoblastoma = assay type: in vivo, murine; settings: for survivors, EM: parentheses, per 6
Source text: ^c Ic tumor implantation, ip QD15 treatment schedule.
as §1

lymphoid leukemia L1210 [5] = test system: lymphoid leukemia L1210
Source text: ^b Ip tumor implantation, ip QD19 treatment schedule.
^e ILS = [(treated survival + control survival) × 100%] - 100%
The L1210, P388 and B16 test systems described in Table II utilize intraperitoneal (IP) tumor implantation and IP drug treatment while the Lewis lung system employs subcutaneous tumor implantation and IP treatment. All three CNS tumor models (Table III) use intracerebral (IC) tumor implantation and IP treatment.
Aqueous saline solution (0.9%) was used as the drug vehicle. Normally, five doses were employed per experiment with the top dose chosen to produce toxicity. The lower doses were 50% of each preceeding dose.
Consistent with NCI antitumor test protocols, intraperitoneal (IP) administration of the drug was employed with all five tumor systems investigated. Tumor implantation was IP in the systems designated IP leukemia L1210 and P388 as well as B16 melanoma. Intracerebral (IC) tumor implantation was utilized in the IC L1210 and ependymoblastoma tumor systems.

[6] = Room temperature water solubility; assay type: physicochemical
Method: In the following examples, all melting points are uncorrected and were recorded on a Thomas-Hoover capillary melting point apparatus. Elemental analyses were performed by NIAMDD, NIH, Bethesda, Md. Fluoranil, ethyleneimine and 2-methylethyleneimine were obtained commercially. […] New compounds were identified by nmr and ir spectroscopy. In the tetraamino derivatives, the methylene protons of the aziridine rings usually occurred as a singlet at δ2.0-2.2 in CDCl3 or DMSO-d6. This absorption appeared at δ2.40 (CDCl3) for compound 11. Carbonyl absorption frequencies (nujol mull) occurred in the range 1620-1640 cm^-1 for the tetraamino compounds. Satisfactory elemental analyses (+0.4% of calculated values) are indicated by elemental symbols in Table VII. Room temperature water solubilities were determined by the incremental addition (pipet) of water to a weighed amount of compound with shaking. The solubility values in Table VII must be considered as approximate.

[7] = IP, QD1-9, 1.56 mg/kg/injection
[8] = IP, QD1-9, 3.12 mg/kg/injection
[9] = IP, QD1-9, 6.25 mg/kg/injection

Q: With CCOC(=O)NC1=C(N2CC2)C(=O)C(NC(=O)OCC)=C(N2CC2)C1=O [Compound 9, 2,5-DIAZIRIDINYL-3,6-BIS(CARBOETHOXYAMINO)-1,4-BENZOQUINONE] as the compound, how does the OD (B16 melanocarcinoma) read?
A: 3.12 mg/kg

Q: And the “activity in B16 melanoma” value (B16 melanocarcinoma)?
A: very active

Q: And the ILS (B16 melanocarcinoma; [7])?
A: 38% and 44% and 58%

Q: What about the ILS (B16 melanocarcinoma; [8]) of the same compound?
A: 58% and 43% and 70%

Q: And the “% ILS” value (B16 melanocarcinoma; Table IV summary, QD1-9, at OD)?
A: 94% and 70% and 62%

Q: And the OD (B16 melanocarcinoma; Table IV, QD1-9)?
A: 3 mg/kg/injection

Q: And the “activity (ILS)” value (B16 melanocarcinoma; as high as, at OD of 3.12 mg/kg)?
A: ≤ 70%

Q: What about the “activity in Lewis lung” value (Lewis lung carcinoma) of the same compound?
A: Marginal activity

Q: And the ILS (Lewis lung carcinoma; IP, 2.00 mg/kg/injection, 2 mg/kg)?
A: 38% and 34%

Q: And the OD (lymphoid leukemia L1210 [1])?
A: 3.12 mg/kg

Q: What about the “activity in IC L1210” value (lymphoid leukemia L1210 [1]) of the same compound?
A: reproducible activity; also recorded: substantial

Q: And the ILS (lymphoid leukemia L1210 [1]; [7])?
A: 51% and 46%

Q: And the ILS (lymphoid leukemia L1210 [1]; [8])?
A: 84% and 79%

Q: And the ILS (lymphoid leukemia L1210 [1]; [9])?
A: 10% and 3%

Q: And the “% ILS” value (lymphoid leukemia L1210 [1]; Table IV summary, QD1-9, at OD)?
A: 84% and 79% and 63% and 58%

Q: What about the OD (lymphoid leukemia L1210 [1]; Table IV, QD1-9) of the same compound?
A: 3 mg/kg/injection and 5 mg/kg/injection

Q: And the ILS (lymphoid leukemia L1210 [1]; at OD 3.12 mg/kg)?
A: 79% and 84%

Q: What about the “activity in IC P388” value [2] of the same compound?
A: reproducible activity; also recorded: substantial

Q: What about the ILS ([2]; QD1-9, 0.39 mg/kg/injection) of the same compound?
A: 7% and 2%

Q: What about the ILS ([2]; QD1-9, 0.78 mg/kg/injection) of the same compound?
A: 27% and 25%

Q: And the ILS ([2]; QD1-9, 1.56 mg/kg/injection)?
A: 37% and 51%

Q: And the ILS ([2]; QD1-9, 3.12 mg/kg/injection)?
A: 39% and 31%

Q: What about the “% ILS” value ([2]; Table IV summary, QD1-9, at OD) of the same compound?
A: 51% and 39%

Q: And the OD ([2]; Table IV, QD1-9)?
A: 1.5 mg/kg/injection and 3 mg/kg/injection

Q: And the “average human maximum tolerated dose” value [3]?
A: ~10 mg per dose

Q: And the “activity in IP P388” value [4]?
A: very active

Q: What about the “optimum dose (OD)” value [4] of the same compound?
A: 1 to 2 mg/kg

Q: What about the ILS ([4]; IP, QD1-9, 0.78 mg/kg/injection) of the same compound?
A: 111% and 99%

Q: And the OD ([4]; Table IV, QD1-9)?
A: 1.6 mg/kg/injection and 0.8 mg/kg/injection

Q: What about the “survivors of 6 test mice” value ([4]; Table IV, day 30) of the same compound?
A: 1

Q: What about the “survivors, P388” value [4] of the same compound?
A: 1

Q: And the T-C weight change ([4]; day 5, QD1-9, 6.25 mg/kg/injection)?
A: -6.1 grams

Q: What about the “activity in ependymoblastoma” value (ependymoblastoma) of the same compound?
A: curative in the EM system; also recorded: very active

Q: What about the optimum dose (ependymoblastoma) of the same compound?
A: 1 to 2 mg/kg

Q: What about the “Cures (animals alive per six)” value (ependymoblastoma; 1.00 mg/kg/injection, day 60 (expts 136/144)) of the same compound?
A: 1/6 and 5/6

Q: And the “Cures (animals alive per six)” value (ependymoblastoma; 1.00 mg/kg/injection, day 99 (expt 133))?
A: 3/6

Q: What about the “Cures (animals alive per six)” value (ependymoblastoma; 2.00 mg/kg/injection, day 60 (expts 136/144)) of the same compound?
A: 5/6

Q: And the “Cures (animals alive per six)” value (ependymoblastoma; 2.00 mg/kg/injection, day 99 (expt 133))?
A: 4/6

Q: What about the “Cures (animals alive per six)” value (ependymoblastoma; 4.00 mg/kg/injection, day 60) of the same compound?
A: 4/6

Q: What about the ILS (ependymoblastoma; QD1-5, 0.25 mg/kg/injection, expt 144) of the same compound?
A: 30%

Q: What about the ILS (ependymoblastoma; QD1-5, 0.50 mg/kg/injection, expt 144) of the same compound?
A: 62%

Q: And the ILS (ependymoblastoma; QD1-5, 1.00 mg/kg/injection, expt 133 (day 99))?
A: 348%

Q: What about the ILS (ependymoblastoma; QD1-5, 1.00 mg/kg/injection, expts 136/144 (day 60)) of the same compound?
A: 126% and 171%

Q: And the ILS (ependymoblastoma; QD1-5, 2.00 mg/kg/injection, expt 133 (day 99))?
A: 349%

Q: And the ILS (ependymoblastoma; QD1-5, 4.00 mg/kg/injection, expt 136 (day 60))?
A: 276%

Q: What about the OD (ependymoblastoma; Table IV, QD1-5) of the same compound?
A: 2 mg/kg/injection and 1 mg/kg/injection

Q: What about the “survivors of 6 test mice” value (ependymoblastoma; Table IV, day 60) of the same compound?
A: 5 and 4 and 6

Q: And the “ILS (%) EM” value (ependymoblastoma; Table XI, outstanding activity)?
A: 277%

Q: What about the “survivors, EM” value (ependymoblastoma; Table XI) of the same compound?
A: 5

Q: What about the T-C weight change (ependymoblastoma; day 5, 0.25 mg/kg/injection) of the same compound?
A: -1.5 grams

Q: What about the T-C weight change (ependymoblastoma; day 5, 0.50 mg/kg/injection) of the same compound?
A: -1.8 grams

Q: And the T-C weight change (ependymoblastoma; day 5, 8.00 mg/kg/injection)?
A: -5.0 grams

Q: And the “activity in IP L1210” value (lymphoid leukemia L1210 [5])?
A: greater L1210 activity on the QD1-9 schedule; also recorded: very active

Q: What about the ILS (lymphoid leukemia L1210 [5]; IP, QD1-9, 0.88 mg/kg/injection) of the same compound?
A: 32%

Q: And the ILS (lymphoid leukemia L1210 [5]; IP, QD1-9, 1.30 mg/kg/injection)?
A: 60%

Q: What about the ILS (lymphoid leukemia L1210 [5]; IP, QD1-9, 2.00 mg/kg/injection) of the same compound?
A: 125%

Q: What about the ILS (lymphoid leukemia L1210 [5]; [9]) of the same compound?
A: 27%

Q: What about the “increase in life span (ILS)” value (lymphoid leukemia L1210 [5]; Q4D and QD1-9 schedules) of the same compound?
A: > 25%

Q: And the “% ILS” value (lymphoid leukemia L1210 [5]; Q4D schedule)?
A: 54%

Q: What about the “optimum dose (OD)” value (lymphoid leukemia L1210 [5]; QD1-9, mouse) of the same compound?
A: 2 mg/kg and 2 to 3 mg/kg

Q: And the ILS (lymphoid leukemia L1210 [5]; QD1-9, reproducible)?
A: > 100%

Q: What about the “% ILS” value (lymphoid leukemia L1210 [5]; Table IV summary, QD1-9, at OD) of the same compound?
A: 100%

Q: And the OD (lymphoid leukemia L1210 [5]; Table IV, QD1-9)?
A: 3 mg/kg/injection and 2 mg/kg/injection and 4 mg/kg/injection

Q: What does the source list for NC1=C(N2CC2)C(=O)C(N)=C(N2CC2)C1=O [Compound 33, 2,5-DIZAIRIDINYL-3,6-DIAMINO-1,4-BENZOQUINONE]?
A: ILS (B16 melanocarcinoma; QD1-9, at OD, Table IX): 31% and 19%; activity in IC L1210 (lymphoid leukemia L1210 [1]): most active; also recorded: significant activity; OD (lymphoid leukemia L1210 [1]; QD1-9, Table X): 0.3 mg/kg/injection; ILS (lymphoid leukemia L1210 [1]; QD1-9, at OD, Table X): 60% and 59%; OD ([4]; QD1-9, Table IX): 0.2 mg/kg/injection; ILS ([4]; QD1-9, at OD, Table IX): 171% and 156%; animals alive per 6 ([4]; QD1-9, day 30, at OD, Table IX): 1; survivors, P388 [4]: 1; activity in ependymoblastoma (ependymoblastoma): among the most active materials; OD (ependymoblastoma; QD1-5, Table X): 0.2 mg/kg/injection; ILS (ependymoblastoma; QD1-5, at OD, Table X): 215% and 177%; animals alive per 6 (ependymoblastoma; QD1-5, day 60, at OD, Table X): 4 and 6; survivors, EM (ependymoblastoma; Table XI): 6; solubility [6]: so insoluble in any solvent; OD (lymphoid leukemia L1210 [5]; Day 1 only (1 injection), Table VIII): 1.0 mg/kg/injection and 0.5 mg/kg/injection; ILS (lymphoid leukemia L1210 [5]; Q4D, at OD, Table VIII): 161% and 124%; animals alive per 6 (lymphoid leukemia L1210 [5]; Q4D, day 30, at OD, Table VIII): 3 and 2; OD (lymphoid leukemia L1210 [5]; QD1-9 (9 injections), Table VIII): 0.4 mg/kg/injection and 0.3 mg/kg/injection; ILS (lymphoid leukemia L1210 [5]; QD1-9, at OD, Table VIII): 115% and 100%; survivors, IP L1210 (lymphoid leukemia L1210 [5]; Table XI, parentheses, per 6): 3
